In brackets after ≈: the same amount, converted by molar mass. Activity calls are given as the source filed them.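 The calls were made as follows: active = compounds whose lowest dose cutting E. coli growth over twofold at 37 C is below a set limit; inactive = the rest.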

This test deals with E. coli growth, OD530, overnight, 37 C. Kind of test: antibacterial MIC against E. coli – 37 and 42 C, DnaK modulator project, SAR follow-up (AID 1503).
Setting [1] is: measured here: E. coli MIC at 42 C.

For `Cc1ccc(C(=O)NCc2ccc(Cl)cc2)o1`, the MIC was > 4000 µM (inactive).

For `O=C(NCc1ccccc1F)c1cccs1`, the MIC was > 4000 µM (inactive).

As for `O=C(NCc1ccccc1Br)c1cccs1`, the MIC was > 4000 µM (inactive).

`O=C(Nc1ccc2[nH]ccc2c1)c1cccs1`: the MIC was 400 µM (≈ 96.9 µg/mL). The same molecule displayed an MIC under setting [1] of 400 µM (≈ 96.9 µg/mL).

Regarding `Nc1ccc2c(ccn2C(=O)c2cccs2)c1`, the MIC was < 4000 µM (inactive). The molecule further gave an MIC under setting [1] above 4000 µM.

On to `Cc1ccc(C(=O)NCc2ccc(F)cc2)o1`, for which the MIC is > 4000 µM (inactive).

`CC(Cc1ccc(F)cc1)NC(=O)c1cccs1` (configuration not stated): the MIC is > 10000 µM (inactive). For the same molecule, under setting [1], the MIC was above 10000 µM.

Take `Cc1ccc(CNC(=O)c2ccc([N+](=O)[O-])o2)cc1`: the MIC is 250 µM (≈ 65.1 µg/mL). This molecule gave an MIC under setting [1] of 250 µM (≈ 65.1 µg/mL).

The record behind these values is PubChem BioAssay AID1503 (Sanford-Burnham Center for Chemical Genomics, 2009).
